Assay results taken from ChEMBL document CHEMBL4043157, “Benzothiazole analogues: Synthesis, characterization, MO calculations with PM6 and DFT, in silico studies and in vitro antimalarial as DHFR inhibitors and antimicrobial activities” (Bioorg Med Chem, 2017).
≈ marks a conversion by molar mass, not a printed value. Calls of active or inactive are those of the source. The calls are words filed in the database; no cut-off is given here.

Legend:
Candida albicans = assay: Antimicrobial activity against Candida albicans MTCC 227; format: functional
Aspergillus clavatus [1] = conditions: MTCC 1323
Escherichia coli = assay: Antimicrobial activity against Escherichia coli MTCC 443; format: functional
[2] = Cytotoxicity in Schizosaccharomyces pombe assessed as cell viability at 6 ug/ml (reference value: 94.67 +/- 1.53%); conditions: Schizosaccharomyces pombe cells, read-out: Activity
[3] = Cytotoxicity in Schizosaccharomyces pombe assessed as cell viability at 8 ug/ml (reference value: 94.67 +/- 1.53%); conditions: Schizosaccharomyces pombe cells, read-out: Activity
Pseudomonas aeruginosa = assay: Antimicrobial activity against Pseudomonas aeruginosa MTCC 1688; format: functional
[4] = tested on: Schizosaccharomyces pombe; assay: Genotoxicity in Schizosaccharomyces pombe assessed as induction of DNA damage by measuring appearance of DNA smear DNA band at 2 to 10 ug/ml by agarose gel electrophoresis
Staphylococcus aureus = assay: Antimicrobial activity against Staphylococcus aureus MTCC 96; format: functional
[5] = Cytotoxicity in Schizosaccharomyces pombe assessed as cell viability at 2 ug/ml (reference value: 94.67 +/- 1.53%); conditions: Schizosaccharomyces pombe cells, read-out: Activity
Plasmodium falciparum = assay: Antimalarial activity against Plasmodium falciparum; format: functional
[6] = Cytotoxicity in Schizosaccharomyces pombe assessed as cell viability at 4 ug/ml (reference value: 94.67 +/- 1.53%); conditions: Schizosaccharomyces pombe cells, read-out: Activity
[7] = Cytotoxicity in Schizosaccharomyces pombe assessed as cell viability at 10 ug/ml (reference value: 94.67 +/- 1.53%); conditions: Schizosaccharomyces pombe cells, read-out: Activity
Streptococcus pyogenes = assay: Antimicrobial activity against Streptococcus pyogenes MTCC 442; format: functional
Dihydrofolate reductase = biological target: T1, Dihydrofolate reductase (Bos taurus, UniProt P00376); assay: Inhibition of bovine liver DHFR
T1 sequence (P00376 whole entry): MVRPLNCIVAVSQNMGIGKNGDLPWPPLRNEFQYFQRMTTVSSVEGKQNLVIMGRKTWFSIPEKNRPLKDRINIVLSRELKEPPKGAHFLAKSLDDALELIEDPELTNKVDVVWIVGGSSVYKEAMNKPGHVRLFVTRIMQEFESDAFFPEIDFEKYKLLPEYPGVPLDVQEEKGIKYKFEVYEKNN

Aspergillus clavatus [8] = assay: Antimicrobial activity against Aspergillus clavatus MTCC 1323; format: functional

Compound | MIC (Candida albicans) | MIC (Aspergillus clavatus [1]) | MIC (Escherichia coli) [µM] | viability at 6 ug/ml [2] [%] | viability at 8 ug/ml [3] [%] | MIC (Pseudomonas aeruginosa) [µM] | Activity [4] | MIC (Staphylococcus aureus) [µM] | viability at 2 ug/ml [5] [%] | IC50 (Plasmodium falciparum) [nM] | viability at 4 ug/ml [6] [%] | viability at 10 ug/ml [7] [%] | MIC (Streptococcus pyogenes) [µM] | IC50 (Dihydrofolate reductase) [nM] | MIC (Aspergillus clavatus [8]) [µM]
NYSTATIN | 108 µM | 108 µM | – | – | – | – | – | – | – | – | – | – | – | – | –
Oc1ccc(/C=N/c2nc3ccccc3s2)cc1 | inactive | inactive | 394 (≈ 100 µg/mL) | 69.3 | 68.3 | 394 (≈ 100 µg/mL) | Toxic | 984 (≈ 250 µg/mL) | 87 | 386 | 75 | 65.3 | 1970 (≈ 500 µg/mL) | 51.2 | –
CCc1nc(N)nc(N)c1-c1ccc(Cl)cc1 [PYRIMETHAMINE] | – | – | – | – | – | – | – | – | – | 1000 | – | – | – | – | –
Clc1ccc(/C=N/c2nc3ccccc3s2)cc1Cl | inactive | – | 409 (≈ 126 µg/mL) | 81 | 77 | 409 (≈ 126 µg/mL) | Toxic | 409 (≈ 126 µg/mL) | 89 | 980 | 84.3 | 73.3 | 327 (≈ 100 µg/mL) | – | 1630 (≈ 502 µg/mL)
CC1(C)S[C@@H]2[C@H](NC(=O)[C@H](N)c3ccccc3)C(=O)N2[C@H]1C(=O)O [AMPICILLIN] | – | – | 286 (≈ 99.9 µg/mL) | – | – | 286 (≈ 99.9 µg/mL) | – | 716 (≈ 250 µg/mL) | – | – | – | – | 286 (≈ 99.9 µg/mL) | – | –
C(=N\c1nc2ccccc2s1)/c1cccs1 | 4100 µM (≈ 1000 µg/mL) | inactive | 256 (≈ 62.6 µg/mL) | 80.7 | 73 | 410 (≈ 100 µg/mL) | Toxic | 410 (≈ 100 µg/mL) | 86 | 1020 | 81.7 | 67 | 410 (≈ 100 µg/mL) | – | –
O=C(N[C@H](CO)[C@H](O)c1ccc([N+](=O)[O-])cc1)C(Cl)Cl [CHLORAMPHENICOL] | – | – | 155 (≈ 50.1 µg/mL) | – | – | 155 (≈ 50.1 µg/mL) | – | 155 (≈ 50.1 µg/mL) | – | – | – | – | 155 (≈ 50.1 µg/mL) | – | –
O=C(O)c1cn(C2CC2)c2cc(N3CCNCC3)c(F)cc2c1=O [CIPROFLOXACIN] | – | – | 75 (≈ 24.9 µg/mL) | – | – | 75 (≈ 24.9 µg/mL) | – | 151 (≈ 50 µg/mL) | – | – | – | – | 151 (≈ 50 µg/mL) | – | –
COC1=CC(=O)C[C@@H](C)[C@]12Oc1c(Cl)c(OC)cc(OC)c1C2=O [GRISEOFULVIN] | 1420 µM (≈ 501 µg/mL) | – | – | – | – | – | – | – | – | – | – | – | – | – | 284 (≈ 100 µg/mL)
Brc1ccc(/C=N/c2nc3ccccc3s2)cc1 | inactive | inactive | 198 (≈ 62.8 µg/mL) | 72.3 | 68.3 | 396 (≈ 126 µg/mL) | Toxic | 791 (≈ 251 µg/mL) | 77.3 | 288 | 73.3 | 66.3 | 633 (≈ 201 µg/mL) | 45.5 | –
CCn1cc(C(=O)O)c(=O)c2cc(F)c(N3CCNCC3)cc21 [NORFLOXACIN] | – | – | 31 (≈ 9.9 µg/mL) | – | – | 31 (≈ 9.9 µg/mL) | – | 31 (≈ 9.9 µg/mL) | – | – | – | – | 31 (≈ 9.9 µg/mL) | – | –
Clc1ccc(/C=N/c2nc3ccccc3s2)cc1 | 3680 µM (≈ 1000 µg/mL) | – | 735 (≈ 200 µg/mL) | 82.7 | 78 | 460 (≈ 125 µg/mL) | Toxic | 460 (≈ 125 µg/mL) | 89.3 | 353 | 87 | 75.3 | 368 (≈ 100 µg/mL) | 41.5 | 1840 (≈ 501 µg/mL)
O=[N+]([O-])c1ccccc1/C=N/c1nc2ccccc2s1 | 3530 µM (≈ 1000 µg/mL) | inactive | 442 (≈ 125 µg/mL) | 79.7 | 77 | 707 (≈ 200 µg/mL) | Toxic | 353 (≈ 100 µg/mL) | 84.3 | 396 | 82 | 72.3 | 221 (≈ 62.6 µg/mL) | 53.1 | –
C(=N\c1nc2ccccc2s1)/c1ccco1 | 4380 µM (≈ 1000 µg/mL) | inactive | 548 (≈ 125 µg/mL) | 64 | 62.3 | 877 (≈ 200 µg/mL) | Toxic | 877 (≈ 200 µg/mL) | 78.7 | 1860 | 73 | 61.7 | 439 (≈ 100 µg/mL) | – | –
O=[N+]([O-])c1cccc(/C=N/c2nc3ccccc3s2)c1 | 1770 µM (≈ 501 µg/mL) | – | 883 (≈ 250 µg/mL) | 79.3 | 74.7 | 221 (≈ 62.6 µg/mL) | Toxic | 707 (≈ 200 µg/mL) | 88.7 | 201 | 84 | 70.3 | 883 (≈ 250 µg/mL) | 31.2 | 883 (≈ 250 µg/mL)
Fc1ccc(/C=N/c2nc3ccccc3s2)cc1 | 1950 µM (≈ 501 µg/mL) | – | 781 (≈ 200 µg/mL) | 73 | 72.3 | 976 (≈ 250 µg/mL) | Toxic | 244 (≈ 62.5 µg/mL) | 86.3 | 1480 | 81.7 | 71.7 | 391 (≈ 100 µg/mL) | – | 1950 (≈ 501 µg/mL)
C(=N\c1nc2ccccc2s1)/c1ccc[nH]1 | 2200 µM (≈ 500 µg/mL) | – | 881 (≈ 200 µg/mL) | 74.3 | 71.7 | 1100 (≈ 250 µg/mL) | Toxic | 551 (≈ 125 µg/mL) | 87 | 1910 | 82.3 | 69.7 | 440 (≈ 100 µg/mL) | – | 4400 (≈ 1000 µg/mL)
